Results published in PubChem BioAssay AID2060487 (Molecular Pharmacology Branch, DTP, NCI, 2025).

Test system: 997537-175-T-J1-PDC complex spheroid viability
Test: Anticancer human tumor 997537-175-T-J1-PDC patient-derived colon adenocarcinoma cell line growth inhibition [GQUAD]
Details: for IC50: curve of first compound; for viability, T/C: stronger effect = lower value
Summary of the method: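 Tumor cells were grown as complex spheroids with HUVEC endothelial cells and mesenchymal stem cells as stroma. G-quadruplex stabilizers were combined with targeted agents over half-log dilutions from near the clinical Cmax, or from 10 microM.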

[1] = second compound 0.0316 µM, first compound 0.0316 µM
[2] = second compound 0.0316 µM, first compound 0.316 µM
[3] = second compound 0.1 µM, first compound 0.0316 µM
[4] = second compound 0.1 µM, first compound 0.316 µM
[5] = second compound 0.316 µM, first compound 0.0316 µM
[6] = second compound 0.316 µM, first compound 0.316 µM
[7] = second compound 1 µM, first compound 0.0316 µM
[8] = second compound 1 µM, first compound 0.316 µM
[9] = second compound 3.16 µM, first compound 0.0316 µM
[10] = second compound 3.16 µM, first compound 0.316 µM
[11] = second compound 10 µM, first compound 0.0316 µM
[12] = second compound 10 µM, first compound 0.316 µM
[13] = second compound 0.0316 µM, first compound 0.1 µM
[14] = second compound 0.0316 µM, first compound 1 µM
[15] = second compound 0.0316 µM, first compound 3.16 µM
[16] = second compound 0.0316 µM, first compound 10 µM
[17] = second compound 0.1 µM, first compound 0.1 µM
[18] = second compound 0.1 µM, first compound 1 µM
[19] = second compound 0.1 µM, first compound 3.16 µM
[20] = second compound 0.1 µM, first compound 10 µM
[21] = second compound 0.316 µM, first compound 0.1 µM
[22] = second compound 0.316 µM, first compound 1 µM
[23] = second compound 0.316 µM, first compound 3.16 µM
[24] = second compound 0.316 µM, first compound 10 µM
[25] = second compound 1 µM, first compound 0.1 µM
[26] = second compound 1 µM, first compound 1 µM
[27] = second compound 1 µM, first compound 3.16 µM
[28] = second compound 1 µM, first compound 10 µM
[29] = second compound 3.16 µM, first compound 0.1 µM
[30] = second compound 3.16 µM, first compound 1 µM
[31] = second compound 3.16 µM, first compound 3.16 µM
[32] = second compound 3.16 µM, first compound 10 µM
[33] = second compound 10 µM, first compound 0.1 µM
[34] = second compound 10 µM, first compound 1 µM
[35] = second compound 10 µM, first compound 3.16 µM
[36] = second compound 10 µM, first compound 10 µM
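Further: spheroids exposed to the agents for 7 days.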
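Wherever viability, T/C is given: 100% = DMSO vehicle control viability.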

SMILES: CCc1c2c(nc3ccc(O)cc13)-c1cc3c(c(=O)n1C2)COC(=O)[C@]3(O)CC + Cc1cnc(CNC(=O)c2c(=O)c3ccc(N4CCCN(C)CC4)nc3n3c2sc2ccccc23)cn1
- IC50 (second compound 0.0316 µM): 0.00807 µM
- IC50 (second compound 0.1 µM): 0.0118 µM
- IC50 (second compound 0.316 µM): 0.0114 µM
- IC50 (second compound 1 µM): 0.00752 µM
- IC50 (second compound 3.16 µM): 0.0133 µM
- IC50 (second compound 10 µM): 0.0127 µM
- viability, T/C (second compound 0.0316 µM, first compound 0.000999 µM): 101%
- viability, T/C (second compound 0.0316 µM, first compound 0.00316 µM): 70.3%
- viability, T/C (second compound 0.0316 µM, first compound 0.00999 µM): 50.2%
- viability, T/C [1]: 17.3%
- viability, T/C (second compound 0.0316 µM, first compound 0.0999 µM): 6.2%
- viability, T/C [2]: 2.76%
- viability, T/C (second compound 0.1 µM, first compound 0.000999 µM): 95.2%
- viability, T/C (second compound 0.1 µM, first compound 0.00316 µM): 85.8%
- viability, T/C (second compound 0.1 µM, first compound 0.00999 µM): 57%
- viability, T/C [3]: 13.7%
- viability, T/C (second compound 0.1 µM, first compound 0.0999 µM): 8.95%
- viability, T/C [4]: 3.1%
- viability, T/C (second compound 0.316 µM, first compound 0.000999 µM): 101%
- viability, T/C (second compound 0.316 µM, first compound 0.00316 µM): 73.4%
- viability, T/C (second compound 0.316 µM, first compound 0.00999 µM): 63.1%
- viability, T/C [5]: 15.6%
- viability, T/C (second compound 0.316 µM, first compound 0.0999 µM): 10%
- viability, T/C [6]: 3.09%
- viability, T/C (second compound 1 µM, first compound 0.000999 µM): 109%
- viability, T/C (second compound 1 µM, first compound 0.00316 µM): 69.2%
- viability, T/C (second compound 1 µM, first compound 0.00999 µM): 42.1%
- viability, T/C [7]: 28.1%
- viability, T/C (second compound 1 µM, first compound 0.0999 µM): 9.78%
- viability, T/C [8]: 2.05%
- viability, T/C (second compound 3.16 µM, first compound 0.000999 µM): 91.8%
- viability, T/C (second compound 3.16 µM, first compound 0.00316 µM): 80.2%
- viability, T/C (second compound 3.16 µM, first compound 0.00999 µM): 54.9%
- viability, T/C [9]: 32.5%
- viability, T/C (second compound 3.16 µM, first compound 0.0999 µM): 8.3%
- viability, T/C [10]: 2.04%
- viability, T/C (second compound 10 µM, first compound 0.000999 µM): 81.3%
- viability, T/C (second compound 10 µM, first compound 0.00316 µM): 71.1%
- viability, T/C (second compound 10 µM, first compound 0.00999 µM): 59.7%
- viability, T/C [11]: 19.4%
- viability, T/C (second compound 10 µM, first compound 0.0999 µM): 7.8%
- viability, T/C [12]: 1.03%

SMILES: CC(C)(O)C1CCC(Nc2ccc3ncc(-c4cccc(C(F)(F)F)c4)n3n2)CC1 (stereo unspecified) + Cc1cnc(CNC(=O)c2c(=O)c3ccc(N4CCCN(C)CC4)nc3n3c2sc2ccccc23)cn1
- IC50 (second compound 0.0316 µM): 1.13 µM
- IC50 (second compound 0.1 µM): 0.896 µM
- IC50 (second compound 0.316 µM): 1.38 µM
- IC50 (second compound 1 µM): 1.73 µM
- IC50 (second compound 3.16 µM): 1.5 µM
- IC50 (second compound 10 µM): 1.57 µM
- viability, T/C [1]: 90.1%
- viability, T/C [13]: 66.9%
- viability, T/C [2]: 88.4%
- viability, T/C [14]: 52.1%
- viability, T/C [15]: 32.2%
- viability, T/C [16]: 30.2%
- viability, T/C [3]: 87.6%
- viability, T/C [17]: 80.2%
- viability, T/C [4]: 73.4%
- viability, T/C [18]: 46.9%
- viability, T/C [19]: 36.7%
- viability, T/C [20]: 33.7%
- viability, T/C [5]: 98.1%
- viability, T/C [21]: 81.1%
- viability, T/C [6]: 80.5%
- viability, T/C [22]: 57.2%
- viability, T/C [23]: 31.7%
- viability, T/C [24]: 36.5%
- viability, T/C [7]: 69.9%
- viability, T/C [25]: 101%
- viability, T/C [8]: 91.4%
- viability, T/C [26]: 64.5%
- viability, T/C [27]: 35.4%
- viability, T/C [28]: 27%
- viability, T/C [9]: 92.5%
- viability, T/C [29]: 84.4%
- viability, T/C [10]: 96.3%
- viability, T/C [30]: 65.4%
- viability, T/C [31]: 20.1%
- viability, T/C [32]: 23.2%
- viability, T/C [11]: 76.2%
- viability, T/C [33]: 108%
- viability, T/C [12]: 91.5%
- viability, T/C [34]: 69.4%
- viability, T/C [35]: 19.1%
- viability, T/C [36]: 21.2%

SMILES: O=C(c1cc(Cc2n[nH]c(=O)c3ccccc23)ccc1F)N1CCN(C(=O)C2CC2)CC1 + CN(C)c1ccc(Nc2c3ccc(NC(=O)CCN4CCCC4)cc3nc3cc(NC(=O)CCN4CCCC4)ccc23)cc1
- IC50 (second compound 0.0316 µM): > 10 µM
- IC50 (second compound 0.1 µM): > 10 µM
- IC50 (second compound 0.316 µM): > 10 µM
- IC50 (second compound 1 µM): > 10 µM
- IC50 (second compound 3.16 µM): > 10 µM
- IC50 (second compound 10 µM): > 10 µM
- viability, T/C [1]: 106%
- viability, T/C [13]: 89.7%
- viability, T/C [2]: 91.4%
- viability, T/C [14]: 79.1%
- viability, T/C [15]: 98.9%
- viability, T/C [16]: 90.6%
- viability, T/C [3]: 92%
- viability, T/C [17]: 99.2%
- viability, T/C [4]: 97.2%
- viability, T/C [18]: 74.5%
- viability, T/C [19]: 91.4%
- viability, T/C [20]: 88.9%
- viability, T/C [5]: 88.3%
- viability, T/C [21]: 78.2%
- viability, T/C [6]: 90.4%
- viability, T/C [22]: 72%
- viability, T/C [23]: 97.3%
- viability, T/C [24]: 84.3%
- viability, T/C [7]: 85.7%
- viability, T/C [25]: 86%
- viability, T/C [8]: 77.6%
- viability, T/C [26]: 85.6%
- viability, T/C [27]: 92.4%
- viability, T/C [28]: 85.4%
- viability, T/C [9]: 82.8%
- viability, T/C [29]: 105%
- viability, T/C [10]: 88.7%
- viability, T/C [30]: 73.9%
- viability, T/C [31]: 85.8%
- viability, T/C [32]: 105%
- viability, T/C [11]: 74.9%
- viability, T/C [33]: 97.4%
- viability, T/C [12]: 95.2%
- viability, T/C [34]: 93.8%
- viability, T/C [35]: 102%
- viability, T/C [36]: 96%
